From patent US7271239B2, “D-isomers of antimicrobial peptide” (The Research Foundation of State University of New York, priority 2004, dated 2007) come the findings set out here.

Test [1] deals with C. albicans strain DIS. The test is classed as in vivo, mice ICR strain. The protocol:
A previously described protocol was adopted (14). Mice were immunosuppressed with two subcutaneous injections of prednisolone at a dose of 100 mg/kg body weight 1 day prior to and 3 days after the infection with C. albicans. Tetracycline hydrochloride in drinking water at a concentration of 0.83 mg/ml was given to mice beginning 1 day before infection. Mice were anesthetized by intramuscular injection with 60 μl of 2 mg/ml chlorpromazine chloride, using a dose of 10 mg/kg body weight of mice. While under anesthesia, a small cotton ball soaked in 0.1 ml aliquot of C. albicans cell suspension (2.5×10^6 cells) was used to swab the entire oral cavity of the anesthetized mice.
Visual evaluation was done by carefully extending the tongue of randomly picked mice using blunt-end forceps, while the mice were under isoflurane sedation. Presence of thick, white curd-like patches indicated candidal infection. At day 3 post-infection, all animals were examined for evidence oral candidal infection by microbiological evaluation. The entire oral cavity of anesthetized mice was swabbed using a sterile calcium alginate disposable swab (Fisher Scientific), dampened with sterile PBS. Cells were then released from the swab into 1 ml PBS. Serial 10-fold dilutions were plated on SDA plates supplemented with streptomycin (30 μg/ml). Plates were incubated for 24 h at 37° C. and yeast cell count expressed as log10 of cfu/ml.
Tongues from sacrificed animals were used for histological studies. They were fixed in 10% formalin and embedded in paraffin. Serial five-μm sections were cut from the paraffin block and stained with periodic acid-Schiff (PAS) reagent for detection of C. albicans.
Mice were randomly divided into various treatment groups with 8 mice per group. Antifungal agents were employed on an equimolar basis, and included amphotericin B (1.75%), clotrimazole (0.66%), MUC7 12-mer (RKSYKCLHKRCR—SEQ ID NO:1) (L; 3%), MUC7 12-mer (D; 3%), MUC7 12-mer (D; 3%) containing Na2EDTA (1 mM), MUC7 12-mer (L; 3%) containing protease inhibitor cocktail (PIC) (1%), and Hsn5 12-mer (AKRHHGYKRKFH—SEQ ID NO:2) (3%). They were all emulsified in Pluronic F127, (20% lipoil), a polymer of polyoxyethylene and polyoxypropylene (non-ionic surfactant). Animals were anesthetized using isoflurane; while sedated, about 30 to 40 μl of the antifungal emulsion was applied on the tongue and spread throughout oral cavity. The treated mice were under sedation for additional 5 min under isoflurane. Animals were not given access to food and water for 1 h following the application.
Fungal burden was re-evaluated quantitatively after 3 and 6 days of treatment, using the same technique as the one used for initial evaluation. Randomly picked mice from each group was subjected to histopathological evaluation, after 6 days of treatment. Blood from randomly sacrificed mice from each treatment group was analyzed for any changes in the serum liver (AST, ALT, ALP etc.) and kidney enzymes (BUN, glucose, creatinine etc) levels.
Statistical analysis was performed using a significance level set at 0.05 (α) and a significant group size (n=8). Initial infection and antifungal treatment efficacy were determined using analysis of variance (ANOVA), expressed as log10 cfu, and Scheffe's multiple comparison test was used to determine the differences between various treatment groups.

Test [2] relates to C. albicans DIS. Put plainly: Killing assay in whole human saliva. To be noted: saliva, no peptide. The protocol:
FIG. 1. Candidacidal activity of MUC7 12-mer-L, MUC7 12-mer-D, Hsn5 12-mer, and Magainin-II in whole human saliva (WHS). Each peptide at final concentration of 25, 50, and 100 μM was incubated with C. albicans (DIS isolate at 1×10^5 cells/ml) and 20 μl of clarified or unclarified saliva (SL; hatched bars), saliva containing Protease inhibitor cocktail (PIC) (SL+PIC; filled bars), or saliva containing ethylenediamine tetraacetic acid (EDTA) (SL+EDTA; clear bars) at 37° C. for 1.5 h. At the end of incubation, the samples were diluted 20-fold and aliquots plated on SDA. The colony forming units (CFU) were counted after 24 h of incubation. The loss of C. albicans viability was determined by the equation (1−CFU of the test group/CFU of the control group)×100%. The data represent three individual trials, and in each trial the sample was duplicated; the error bars represent standard deviation.
FIG. 4. […] Stimulated whole saliva was collected from 5 healthy subjects. Peptides (50 μM) were incubated with C. albicans cells (1×10^5) in the each individual saliva containing PIC (SL+PIC) at 37° C. for 1.5 hr and the loss of the cell viability was determined. Values represent the mean±S.D. (n=5).
Killing assays in saliva. Unclarified saliva (unstimulated whole saliva) was collected from five healthy individuals during the fasting. Clarified saliva was obtained by passing the unclarified saliva through the 0.2 μm pore size sterile syringe filter (VWR scientific products, West Chester, Pa.). Candidacidal activity assays were performed as described previously (4), except the phosphate buffer was substituted with saliva. […] Saliva without peptides was a blank control. After incubation at 37° C. for 1.5 h, the reactions were diluted 20-fold in PB and aliquots (50 μl, ˜120 cells) of each sample were plated on SDA. The plates were incubated at 37° C. for 1 day aerobically and the number of colony-forming units (CFUs) was counted. Percentage of killing was calculated as (1−amount of viable cells in the test group)/(amount of viable cells in the control group)×100%.

Where [3] appears, read: Experimental study I, topical oral application.

As for `Clc1ccccc1C(c1ccccc1)(c1ccccc1)n1ccnc1` [Clotrimazole, 1-[o-chloro-a,a-diphenylbenzyl]-imidazole], the “Log10 cfu/ml (Mean + S.D.), Initial infection” value in test [1] (Experimental study I, day 3 post-infection, before treatment (baseline)) came out at 4.50 ± 0.20 Log10 cfu/ml. Also, in test [1] (setting [3]), the “Log10 cfu/ml (Mean + S.D.), 3-days treatment” value is 1.58 ± 1.36 Log10 cfu/ml and the “Log10 cfu/ml (Mean + S.D.), 6-days treatment” value is given as 0.53 ± 0.99 Log10 cfu/ml. Further, the “histopathological finding in tongue sections (C. albicans, PAS staining)” value in test [1] (end of treatment) was “healthy tissue and absence of visible microorganisms”.

As for `O=C(O)CN(CCN(CC(=O)O)CC(=O)O)CC(=O)O` [EDTA, ethylenediamine tetraacetic acid], the “effect of additive alone on C. albicans cell viability” value in test [2] was “very little or no effect”.
